According to patent US20060069132A1, “Azolecarboxamide herbicides” (priority 2004, published 2006):

What was measured:
eastern black nightshade = assay: Test C pre-/postemergence herbicide test; type: in vivo, Solanum ptycanthum; details: for Nightshade plant response rating: Preemergence, scale 0 to 100, 0 no effect, 100 complete control
Method in brief: (§1)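 Greenhouse-grown plants were evaluated visually 12 to 14 days after treatment, with 100 meaning complete control and 0 no effect. Application was preemergence, or postemergence at 2 to 18 cm.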

bermudagrass = assay: Test C pre-/postemergence herbicide test; type: in vivo, Cynodon dactylon
Method in brief: as §1

annual bluegrass = assay: Test E pre-/postemergence herbicide test; type: in vivo, Poa annua
From the text: Seeds of plant species selected from bipinnate beggarticks (Bidens bipinnata L.), hairy beggarticks (Bidens radiata Thuill.), bermudagrass (Cynodon dactylon (L.) Pers.), Surinam grass (Urochloa decumbens (Staph) R. D. Webster, previously named Brachiaria decumbens Stapf), large crabgrass (Digitaria sanguinalis (L.) Scop.), green foxtail (Setaria viridis (L.) P. Beauv.), goosegrass (Eleusine indica (L.) Gaertn.), johnsongrass (Sorghum halepense (L.) Pers.), kochia (Kochia scoparia (L.) Schrad.), pitted morningglory (Ipomoea lacunosa L.), purple nutsedge (Cyperus rotundus L.), common ragweed (Ambrosia elatior L.), mustard (Brassica nigra (L.) W. D. J. Koch), guineagrass (Panicum maximum Jacq.), dallisgrass (Paspalum dilatatum Poir.), barnyardgrass (Echinochloa crus-galli (L). P. Beauv.), southern sandbur (Cenchrus echinatus L.), common sowthistle (Sonchus oleraceous L.), prickly sida (Sida spinosa L.), Italian ryegrass (Lolium multiflorum Lam.), common purslane (Portulaca oleracea L.), broadleaf signalgrass (Brachiaria platyphylla (Griseb.) Nash), common groundsel (Senecio vulgaris L.), common chickweed (Stellaria media (L.) Vill/Cyr.), tropical spiderwort (Commelina benghalensis L.), annual bluegrass (Poa annua L.), downy bromegrass (Bromus tectorum L.), itchgrass (Rottboellia cochinchinensis (L.) L.f.), quackgrass (Elytrigia repens (L.) Nevski), Canada horseweed (Erigeron Canadensis L.), field bindweed (Convolvulus arvensis L.), spotted spurge (Euphorbia maculata L.), common mallow (Malva sylvestris (=s silvestris) L.), and Russian thistle (Salsola kali L. ssp. Ruthenica (Iljin) Soo) were planted and treated preemergence with test chemicals formulated in a non-phytotoxic solvent mixture which included a surfactant.
At the same time, plants selected from these weed species were treated with postemergence applications of some of the test chemicals formulated in the same manner. Plants ranged in height from 2 to 18 cm (1- to 4-leaf stage) for postemergence treatments. Treated plants and controls were maintained in a greenhouse for 12 to 14 days, after which time all species were compared to controls and visually evaluated. Plant response ratings, summarized in Table E, are based on a scale of 0 to 100 where 0 is no effect and 100 is complete control. A dash (-) response means no test result.

[1] = tested on: common (oilseed) sunflower; assay: Test C pre-/postemergence herbicide test; type: in vivo, Helianthus annuus; details: for Sunflower plant response rating: Preemergence, scale 0 to 100, 0 no effect, 100 complete control
Method in brief: as §1

rice = assay: Test C flooded paddy test; type: in vivo, Oryza sativa; details: for Plant response rating, Rice: 500 g ai/ha, visual rating after 12 to 14 days
Method in brief: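 Plants were grown to the 1- to 4-leaf stage (2–18 cm) and then treated postemergence, or grown to the 2-leaf stage for the flooded paddy test. They were held in a greenhouse for 12 to 14 days and then scored by eye against controls, where 0 is no effect and 100 is complete control.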

[2] = Postemergence, 500 g ai/ha, scale 0 to 100
[3] = Postemergence, 250 g ai/ha, scale 0 to 100
[4] = Preemergence, 62 g ai/ha, scale 0 to 100
[5] = Preemergence, 125 g ai/ha, scale 0 to 100
[6] = Preemergence, 250 g ai/ha, scale 0 (no effect) to 100 (complete control)
[7] = Preemergence, 500 g ai/ha, scale 0 (no effect) to 100 (complete control)
[8] = postemergence, 125 g ai/ha, scale 0 to 100
[9] = postemergence, 62 g ai/ha, scale 0 to 100
[10] = 62 g ai/ha, preemergence, scale 0 to 100
[11] = 250 g ai/ha, scale 0-100, preemergence
[12] = 500 g ai/ha, scale 0 to 100 (0 no effect, 100 complete control), visual, 12 to 14 days, preemergence
[13] = 62 g ai/ha, preemergence, scale 0 to 100, 0 no effect, 100 complete control
[14] = 125 g ai/ha, scale 0 to 100 (0 no effect, 100 complete control)
[15] = 250 g ai/ha, scale of 0 to 100, 0 is no effect, 100 is complete control
[16] = scale 0 to 100 (0 no effect, 100 complete control)
[17] = 125 g ai/ha, scale 0 (no effect) to 100 (complete control), visual, 12 to 14 days, preemergence

`CCn1nc(C(C)(C)C)cc1C(=O)Nc1cc(C(=O)N(C)C)ccn1` [Compound 156, 2-[[[3-(1,1-dimethylethyl)-1-ethyl-1H-pyrazol-5-yl]carbonyl]amino]-N,N-dimethyl-4-pyridinecarboxamide] was tested. Which “Nightshade plant response rating” value (eastern black nightshade; 500 g ai/ha) did it give?
The value was 100.

And the pest or weed control at 62 g/ha (eastern black nightshade; pre-emergence, 62 g ai/ha, preemergence, scale 0 to 100, read-out: Plant response rating, Nightshade)?
Its pest or weed control at 62 g/ha is 75%.

What about the pest or weed control at 125 g/ha (eastern black nightshade; pre-emergence, 125 g ai/ha, scale 0 (no effect) to 100 (complete control), visual, 12 to 14 days, read-out: Plant response rating, Nightshade) of the same molecule?
Its pest or weed control at 125 g/ha is 93%.

What about the pest or weed control at 16 g/ha (bermudagrass; Cynodon dactylon, pre-emergence, 312 h, 16 g ai/ha, scale 0 to 100, 0 no effect, 100 complete control, last section of Table C (species set of preemergence test), read-out: Plant response rating, Bermudagrass) of the same molecule?
The pest or weed control at 16 g/ha was 0%.

What about the pest or weed control at 31 g/ha (bermudagrass; Cynodon dactylon, pre-emergence, 312 h, 31 g ai/ha, scale 0 to 100, 0 no effect, 100 complete control, last section of Table C (species set of preemergence test), read-out: Plant response rating, Bermudagrass) of the same molecule?
Its pest or weed control at 31 g/ha is 60%.

And the pest or weed control at 62 g/ha (bermudagrass; Cynodon dactylon, pre-emergence, 312 h, 62 g ai/ha, preemergence, scale 0 to 100, 0 no effect, 100 complete control, read-out: Plant response rating, Bermudagrass)?
The pest or weed control at 62 g/ha was 88%.

And the pest or weed control at 125 g/ha (bermudagrass; Cynodon dactylon, pre-emergence, 312 h, 125 g ai/ha, scale 0 (no effect) to 100 (complete control), visual, 12 to 14 days, read-out: Plant response rating, Bermudagrass)?
The pest or weed control at 125 g/ha was 93%.

What about the pest or weed control at 250 g/ha (bermudagrass; Cynodon dactylon, pre-emergence, 312 h, 250 g ai/ha, scale 0 to 100 (0 no effect, 100 complete control), visual, 12 to 14 days, read-out: Plant response rating, Bermudagrass) of the same molecule?
Its pest or weed control at 250 g/ha is 95%.

And the pest or weed control at 500 g/ha (bermudagrass; Cynodon dactylon, pre-emergence, 312 h, Preemergence, 500 g ai/ha, scale 0 to 100, 0 no effect, 100 complete control, read-out: Bermudagrass plant response rating)?
Its pest or weed control at 500 g/ha is 95%.

What about the “Plant response rating, Bluegrass” value (annual bluegrass; [2]) of the same molecule?
Its value is 98.

And the “Plant response rating, Bluegrass” value (annual bluegrass; [3])?
Its value is 98.

What about the “Plant response rating, Bluegrass” value (annual bluegrass; [4]) of the same molecule?
Its value is 95.

And the “Plant response rating, Bluegrass” value (annual bluegrass; [5])?
The value was 95.

What about the “Plant response rating, Bluegrass” value (annual bluegrass; [6]) of the same molecule?
Its value is 100.

What about the “Plant response rating, Bluegrass” value (annual bluegrass; [7]) of the same molecule?
The value was 100.

What about the “Plant response rating, Bluegrass” value (annual bluegrass; [8]) of the same molecule?
The value was 95.

What about the “Plant response rating, Bluegrass” value (annual bluegrass; [9]) of the same molecule?
The value was 90.

And the pest or weed control at 62 g/ha ([1]; Helianthus annuus, pre-emergence, 62 g ai/ha, preemergence, scale 0 to 100, read-out: Plant response rating, Sunflower)?
Its pest or weed control at 62 g/ha is 25%.

What about the pest or weed control at 125 g/ha ([1]; Helianthus annuus, pre-emergence, 125 g ai/ha, scale 0 (no effect) to 100 (complete control), visual, 12 to 14 days, read-out: Plant response rating, Sunflower) of the same molecule?
Its pest or weed control at 125 g/ha is 45%.

What about the “Sunflower plant response rating” value ([1]; 500 g ai/ha) of the same molecule?
The value was 85.

With `CCc1nn(C(C)C)nc1C(=O)Nc1cccc(C(=O)N(C)CC)c1` [Compound 386] as the molecule, how does the “Plant response rating, Nightshade” value (eastern black nightshade; [10]) read?
The value was 90.

What about the “Plant response rating (0 = no effect, 100 = complete control), Nightshade” value (eastern black nightshade; 125 g ai/ha, preemergence) of the same molecule?
The value was 95.

What about the “Plant response rating, Nightshade” value (eastern black nightshade; [11]) of the same molecule?
Its value is 95.

And the “Plant response rating, Nightshade” value (eastern black nightshade; [12])?
Its value is 100.

What about the “Plant response rating, Bermudagrass” value (bermudagrass; [13]) of the same molecule?
The value was 90.

What about the “Plant response rating (0 = no effect, 100 = complete control), Bermudagrass” value (bermudagrass; 125 g ai/ha, preemergence) of the same molecule?
Its value is 95.

And the “Plant response rating, Bermudagrass” value (bermudagrass; [11])?
Its value is 95.

And the “Plant response rating, Bermudagrass” value (bermudagrass; [12])?
Its value is 95.

What about the “Plant response rating, Bluegrass” value (annual bluegrass; [5]) of the same molecule?
Its value is 60.

And the “Plant response rating, Bluegrass” value (annual bluegrass; [6])?
The value was 95.

And the “Rice plant response rating” value (rice; 62 g ai/ha, scale 0 to 100)?
The value was 25.

And the “Rice plant response rating” value (rice; [14])?
Its value is 65.

And the “Rice plant response rating” value (rice; [15])?
Its value is 70.

And the “Plant response rating, Rice” value (rice; [16])?
The value was 75.

And the “Plant response rating (0 = no effect, 100 = complete control), Sunflower” value ([1]; 125 g ai/ha, preemergence)?
Its value is 40.

What about the “Plant response rating, Sunflower” value [1, 11] of the same molecule?
Its value is 85.

And the “Plant response rating, Sunflower” value [1, 12]?
Its value is 85.

`CCNC(=O)c1ccc(F)c(NC(=O)c2cn(C(C)(C)C)nc2CC)c1` [Compound 193] was tested. Which “Plant response rating, Nightshade” value (eastern black nightshade; [10]) did it give?
Its value is 0.

What about the “Plant response rating, Nightshade” value (eastern black nightshade; [17]) of the same molecule?
The value was 50.

What about the “Plant response rating, Nightshade” value (eastern black nightshade; [11]) of the same molecule?
The value was 85.

What about the “Nightshade plant response rating” value (eastern black nightshade; 500 g ai/ha) of the same molecule?
Its value is 100.

What about the “Plant response rating, Bermudagrass” value (bermudagrass; [13]) of the same molecule?
Its value is 60.

What about the “Plant response rating, Bermudagrass” value (bermudagrass; [17]) of the same molecule?
The value was 80.

What about the “Plant response rating, Bermudagrass” value (bermudagrass; [11]) of the same molecule?
The value was 85.

What about the “Bermudagrass plant response rating” value (bermudagrass; Preemergence, 500 g ai/ha, scale 0 to 100, 0 no effect, 100 complete control) of the same molecule?
The value was 100.

What about the “Plant response rating, Bluegrass” value (annual bluegrass; [2]) of the same molecule?
Its value is 85.

And the “Plant response rating, Bluegrass” value (annual bluegrass; [3])?
The value was 70.

And the “Plant response rating, Bluegrass” value (annual bluegrass; [4])?
Its value is 80.

And the “Plant response rating, Bluegrass” value (annual bluegrass; [5])?
Its value is 100.

And the “Plant response rating, Bluegrass” value (annual bluegrass; [6])?
Its value is 100.

And the “Plant response rating, Bluegrass” value (annual bluegrass; [7])?
Its value is 100.

What about the “Plant response rating, Bluegrass” value (annual bluegrass; [8]) of the same molecule?
Its value is 50.

What about the “Plant response rating, Bluegrass” value (annual bluegrass; [9]) of the same molecule?
Its value is 20.

And the “Rice plant response rating” value (rice; 62 g ai/ha, scale 0 to 100 (0 no effect, 100 complete control))?
Its value is 25.

And the “Rice plant response rating” value (rice; [14])?
Its value is 50.

What about the “Rice plant response rating” value (rice; [15]) of the same molecule?
The value was 70.

And the “Plant response rating, Rice” value (rice; [16])?
The value was 75.

What about the “Plant response rating, Sunflower” value [1, 10] of the same molecule?
The value was 0.

What about the “Plant response rating, Sunflower” value [1, 17] of the same molecule?
Its value is 0.

And the “Plant response rating, Sunflower” value [1, 11]?
The value was 0.

And the “Sunflower plant response rating” value ([1]; 500 g ai/ha)?
The value was 50.

How did the “Plant response rating, Bermudagrass” value (bermudagrass; [13]) turn out when `CCc1nn(C(C)C)nc1C(=O)Nc1cccc(C(=O)N2CCCCC2)c1` [Compound 385] was run?
The value was 55.

And the “Plant response rating (0 = no effect, 100 = complete control), Bermudagrass” value (bermudagrass; 125 g ai/ha, preemergence)?
Its value is 85.

And the “Plant response rating, Bermudagrass” value (bermudagrass; [11])?
Its value is 100.

And the “Plant response rating, Bermudagrass” value (bermudagrass; [12])?
The value was 100.

What about the “Plant response rating, Bluegrass” value (annual bluegrass; [4]) of the same molecule?
Its value is 0.

And the “Plant response rating, Bluegrass” value (annual bluegrass; [5])?
Its value is 10.

What about the “Plant response rating, Bluegrass” value (annual bluegrass; [6]) of the same molecule?
Its value is 30.

And the “Rice plant response rating” value (rice; 62 g ai/ha, scale 0 to 100)?
The value was 40.

And the “Rice plant response rating” value (rice; [14])?
Its value is 50.

What about the “Rice plant response rating” value (rice; [15]) of the same molecule?
The value was 65.

What about the “Plant response rating, Rice” value (rice; [16]) of the same molecule?
The value was 80.
